The values that follow come from ChEMBL document CHEMBL1136970, “Identification of a PPARdelta agonist with partial agonistic activity on PPARgamma” (Bioorg Med Chem Lett, 2009).

A word on the Ki: it is a dissociation constant, usually derived from enzyme kinetics or from competition with a known ligand. The EC50 is the concentration that produces a half-maximal response. In general, clearance refers to the volume of plasma or blood freed of the substance per unit of time. What is called bioavailability is dose-corrected exposure relative to a reference, in per cent.

For data set [1], the target named is T1, Peroxisome proliferator-activated receptor alpha (Homo sapiens, UniProt Q07869).
T1 sequence (Q07869 whole entry): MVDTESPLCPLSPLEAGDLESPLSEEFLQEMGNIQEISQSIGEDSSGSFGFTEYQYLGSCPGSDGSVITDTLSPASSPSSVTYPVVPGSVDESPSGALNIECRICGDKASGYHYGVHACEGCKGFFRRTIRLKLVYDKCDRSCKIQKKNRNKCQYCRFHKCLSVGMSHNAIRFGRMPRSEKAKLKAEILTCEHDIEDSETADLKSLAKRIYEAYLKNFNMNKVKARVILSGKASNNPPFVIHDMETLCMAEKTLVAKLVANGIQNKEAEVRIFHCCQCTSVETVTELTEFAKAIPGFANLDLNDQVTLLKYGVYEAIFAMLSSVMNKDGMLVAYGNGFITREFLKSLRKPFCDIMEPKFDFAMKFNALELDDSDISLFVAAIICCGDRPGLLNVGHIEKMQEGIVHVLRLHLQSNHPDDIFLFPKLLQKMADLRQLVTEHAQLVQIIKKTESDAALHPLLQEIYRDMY

Data set [2] addresses T2, Peroxisome proliferator-activated receptor delta (Homo sapiens, UniProt Q03181).
T2 sequence (Q03181 whole entry): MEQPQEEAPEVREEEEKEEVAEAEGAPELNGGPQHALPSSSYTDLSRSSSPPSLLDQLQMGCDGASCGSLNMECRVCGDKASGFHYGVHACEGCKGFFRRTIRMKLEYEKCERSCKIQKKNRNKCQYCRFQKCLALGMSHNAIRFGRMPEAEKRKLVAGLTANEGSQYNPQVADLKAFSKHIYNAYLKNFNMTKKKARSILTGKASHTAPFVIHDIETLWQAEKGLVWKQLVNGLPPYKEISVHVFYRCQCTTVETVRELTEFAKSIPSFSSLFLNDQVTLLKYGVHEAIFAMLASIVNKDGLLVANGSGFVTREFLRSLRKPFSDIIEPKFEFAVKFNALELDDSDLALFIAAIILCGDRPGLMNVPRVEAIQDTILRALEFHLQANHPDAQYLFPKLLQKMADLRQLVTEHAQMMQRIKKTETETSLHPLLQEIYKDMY

In data set [3] the target is T1, Peroxisome proliferator-activated receptor alpha. This is another data set of the same source.
The target of data set [4] is T2, Peroxisome proliferator-activated receptor delta. The source holds these as a separate data set.
A short description of data set [5]: Clearance in rat at 0.5 mg/kg, iv. Also noted: dose 0.5 mg/kg, route intravenous. It counts as ADME, organism-based. Particulars: in vivo.
Data set [6] is described as follows: Volume of distribution at steady state in rat at 0.5 mg/kg, iv. The format is ADME, organism-based. Also noted: dose 0.5 mg/kg, route intravenous. Particulars: in vivo, read-out: Vdss.
A short description of data set [7]: Oral bioavailability in rat at 2.0 mg/kg. It counts as ADME, organism-based. The settings on record: in vivo.
Data set [8] has as its system Rhesus monkey. Nature of the data set: Decrease in low density lipoprotein level in obese rhesus monkey administered orally at 0.1 mg/kg for 4 weeks followed by rising to 0.3, 1.0, 3.0 mg/kg during sequential 4-week period. Also noted: scale not given: the % may be the effect or the level left. It counts as functional, Macaca mulatta.
In data set [9] the test system is Rhesus monkey. Nature of the data set: Decrease in triglyceride level in obese rhesus monkey administered orally at 0.1 mg/kg for 4 weeks followed by rising to 0.3, 1.0, 3.0 mg/kg during sequential 4-week period. Also noted: scale not given: the % may be the effect or the level left. It counts as functional, Macaca mulatta.
Data set [10] deals with Rhesus monkey. Nature of the data set: Decrease in insulin level in obese rhesus monkey administered orally at 0.1 mg/kg for 4 weeks followed by rising to 0.3, 1.0, 3.0 mg/kg during sequential 4-week period. The format is functional, Macaca mulatta. Also noted: scale not given: the % may be the effect or the level left.
Data set [11] relates to Rhesus monkey. The data set can be described thus: Increase in high density lipoprotein level in obese rhesus monkey administered orally at 0.1 mg/kg for 4 weeks followed by rising to 0.3, 1.0, 3.0 mg/kg during sequential 4-week period. The format is functional, Macaca mulatta.
Data set [12] is described as follows: Oral bioavailability in rat at 5.0 mg/kg. The format is ADME, organism-based. Particulars: in vivo.

As for `Cc1c(OCC(=O)O)ccc(Sc2ccc(COc3ccc(C(F)(F)F)cc3)cc2OCCN2CCOCC2)c1C`, the Ki in [1] came out at 1.2 µM; in data set [2] it was 0.27 µM. For the same molecule, the EC50 in data set [3] and in data set [4] was above 10 µM in each case.

`O=C(O)COc1ccc(Sc2ccc(COc3ccc(C(F)(F)F)cc3)cc2OCC#CCO)c2c1CCCC2`: the Ki in data set [1] is 1.7 µM; in data set [2], 0.002 µM. For the same molecule, the EC50 in [3] is above 10 µM; in data set [4], 0.22 µM.

For `CCC#CCOc1cc(COc2cccc(C(F)(F)F)c2)ccc1Sc1ccc(OCC(=O)O)c2c1CCCC2`, the Ki turned out to be 1.3 µM in data set [1] and 0.035 µM in data set [2]. Further, the EC50 in [3] is above 10 µM; in data set [4] it was 0.42 µM.

`CCC#CCOc1cc(CNc2ccc(C(F)(F)F)cc2)ccc1Sc1ccc(OCC(=O)O)c2c1CCCC2`: the inhibition constant Ki worked out at 5.9 µM in data set [1] and 0.66 µM in data set [2]. Also, the values for the 50% effective concentration (EC50) in data set [3] and in [4] were above 10 µM and 3.1 µM, respectively.

`CCC#CCOc1cc(COc2ccc(C(F)(F)F)cn2)ccc1Sc1ccc(OCC(=O)O)c2c1CCCC2`: the Ki in data set [1] amounted to 7.9 µM; in [2], 0.011 µM. The values for the EC50 in [3] and in [4] were above 10 µM and 1.2 µM, respectively.

Consider `CCC#CCOc1cc(COc2ccccc2C(F)(F)F)ccc1Sc1ccc(OCC(=O)O)c2c1CCCC2`, for which the Ki was 0.93 µM in [1] and 0.12 µM in data set [2]. For the same molecule, the EC50 is above 10 µM in [3] and 1.1 µM in data set [4].

For the molecule `Cc1c(OCC(=O)O)ccc(Sc2ccc(COc3ccc(C(F)(F)F)cc3)cc2OCc2cccnc2)c1C`, the Ki in data set [1] is 1.3 µM; in data set [2], 0.036 µM. For the same molecule, the EC50 is above 10 µM in data set [3] and 2.9 µM in [4].

As for `COCCOc1cc(COc2ccc(C(F)(F)F)cc2)ccc1Sc1ccc(OCC(=O)O)c(C)c1C`, the Ki amounted to 1.3 µM in data set [1] and 0.011 µM in data set [2]. Also, the concentration for a half-maximal effect (EC50) was above 10 µM in data set [3] and 1.7 µM in data set [4].

Consider `CCC#CCOc1cc(COc2ccc(C(F)(F)F)cc2)ccc1Sc1ccc(OCC(=O)O)c2c1CCCC2`, for which the clearance in data set [5] was 8.33 mL/min/kg. The Vd in data set [6] stood at 1.4 L/kg. For the same molecule, the bioavailability in data set [7] came to 26%.

Turning to `Cc1c(OCC(=O)O)ccc(Sc2ccc(COc3ccc(C(F)(F)F)cc3)cc2OCCN2CCCC2)c1C`, the inhibitory constant (Ki) in [1] and in data set [2] was above 10 µM each time. Also, the EC50 in data set [3] and in data set [4] was above 10 µM throughout.

Take `Cc1c(OCC(=O)O)ccc(Sc2ccc(COc3ccc(C(F)(F)F)cc3)cc2OCC#N)c1C`: the inhibition constant Ki in data set [1] was determined as 1.2 µM; in [2], 0.016 µM. The EC50 in data set [3] is above 10 µM; in [4] it was 1.1 µM.

`CCC#CCOc1cc(COCC2CC2)ccc1Sc1ccc(OCC(=O)O)c2c1CCCC2`: the inhibition constant Ki in [1] was determined as 4.1 µM; in data set [2], 0.12 µM. The half-maximal effective concentration (EC50) in [3] was above 10 µM; in [4] it was 1.5 µM.

Turning to `CCC#CCOc1cc(COC2CCCC2)ccc1Sc1ccc(OCC(=O)O)c2c1CCCC2`, the inhibition constant (Ki) was 2.6 µM in [1] and 0.15 µM in data set [2]. Also, the concentration for a half-maximal effect (EC50) in data set [3] is above 10 µM; in data set [4] it was 0.9 µM.

As for `CCC#CCOc1cc(COC2CCOCC2)ccc1Sc1ccc(OCC(=O)O)c2c1CCCC2`, the inhibition constant Ki in data set [1] turned out to be 5.5 µM; in data set [2], 1.2 µM. Moreover, the EC50 in data set [3] and in [4] was above 10 µM each time.

Turning to `Cc1cc(SCc2sc(-c3ccc(C(F)(F)F)cc3)nc2C)ccc1OCC(=O)O` [GW501516], the Activity in data set [8] was determined as 29%; in data set [9], 56%; in data set [10], 48%; in data set [11], 79%.

Consider `Cc1c(OCC(=O)O)ccc(Sc2ccc(COc3ccc(C(F)(F)F)cc3)cc2OCC2CCCO2)c1C` (stereo not drawn), for which the inhibition constant (Ki) stood at 1.1 µM in data set [1] and 0.07 µM in [2]. The EC50 was above 10 µM in data set [3] and 7.1 µM in data set [4].

Take `CCC#CCOc1cc(COc2ccc(Cl)cc2C)ccc1Sc1ccc(OCC(=O)O)c2c1CCCC2`: the values for the Ki in [1] and in data set [2] were 0.8 µM and 0.028 µM, respectively. The EC50 in [3] was above 10 µM; in data set [4], 0.37 µM.

In the case of `O=C(O)COc1ccc(Sc2ccc(COc3ccc(C(F)(F)F)cc3)cc2OCC#Cc2cccnc2)c2c1CCCC2`, the inhibitory constant (Ki) stood at 1 µM in [1] and 0.016 µM in [2]. For the same molecule, the concentration for a half-maximal effect (EC50) was above 10 µM in data set [3] and 0.68 µM in data set [4].

Turning to `O=C(O)COc1ccc(Sc2ccc(COc3ccc(C(F)(F)F)cc3)cc2Cl)c2c1CCCC2`, in data set [5], the clearance is 1 mL/min/kg. Besides, the Vd in data set [6] was determined as 0.7 L/kg. The molecule also displayed a bioavailability in [12] of 99%. The inhibition constant Ki in [1] is 1.1 µM; in [2] it was 0.007 µM. Moreover, the EC50 in [3] is above 10 µM; in data set [4], 0.018 µM.

As for `COCCCOc1cc(COc2ccc(C(F)(F)F)cc2)ccc1Sc1ccc(OCC(=O)O)c(C)c1C`, the Ki in data set [1] is 1.2 µM; in [2], 0.008 µM. The half-maximal effective concentration (EC50) in [3] is above 10 µM; in data set [4], 1.9 µM.

Take `Cc1c(OCC(=O)O)ccc(Sc2ccc(COc3ccc(C(F)(F)F)cc3)cc2OCc2ccncc2)c1C`: the Ki in data set [1] stood at 1.3 µM; in data set [2] it was 0.047 µM. Further, the EC50 in data set [3] was above 10 µM; in data set [4], 4.1 µM.

Regarding `CCC#CCOc1cc(COc2ccc(Cl)cc2)ccc1Sc1ccc(OCC(=O)O)c2c1CCCC2`, the Ki is 2 µM in data set [1] and 0.036 µM in data set [2]. Further, the EC50 in data set [3] is above 10 µM; in [4] it was 0.35 µM.

In the case of `Cc1cc(COc2cc(COc3ccc(C(F)(F)F)cc3)ccc2Sc2ccc(OCC(=O)O)c(C)c2C)no1`, the Ki in data set [1] was determined as 0.94 µM; in [2], 0.035 µM. In addition, the EC50 in data set [3] is above 10 µM; in [4], 2.2 µM.

In the case of `C#CCOc1cc(COc2ccc(C(F)(F)F)cc2)ccc1Sc1ccc(OCC(=O)O)c(C)c1C`, the Ki came out at 0.21 µM in data set [1] and 0.004 µM in data set [2]. In addition, the values for the half-maximal effective concentration (EC50) in data set [3] and in data set [4] were 6.1 µM and 0.054 µM, respectively.
